Values joined by “and” are separate entries in the source; they are usually repeats but may differ in a detail not shown here. Equal entries are not always repeated. Active and inactive are the calls of the source.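 Rule for the calls: active = compounds giving half or more protection of infected cells from virus-caused growth loss, again on retest; inactive = the rest.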 Where a SMILES comes first, the peptide text is derived from it. The star is where a group is joined. Boc = CC(C)(C)OC(=O)*
Test system: CEM cells HIV-1 protection, formazan growth assay
Experiment: NCI AIDS Antiviral Assay
Details: for IC50: measured here: growth of uninfected CEM cells
Summary of the method: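 Human CEM cells, uninfected and HIV-1-infected, exposed to five drug concentrations; growth measured by soluble formazan assay and scored as percent protection from infection, with protecting compounds retested.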

SMILES	EC50 [µM]	IC50	outcome
O=c1[nH]n(CCc2ccccc2CCl)c2ccc([N+](=O)[O-])cc12	> 200	50.1 µM	
Cn1cc(NC(=O)Nc2cc(C(=O)Nc3cc(C(=O)Nc4ccc5cc(S(=O)(=O)O)cc(S(=O)(=O)O)c5c4)n(C)n3)n(C)c2)cc1C(=O)Nc1cc(C(=O)Nc2ccc3cc(S(=O)(=O)O)cc(S(=O)(=O)O)c3c2)n(C)n1	5.5	> 100 µM	
COc1c(-c2cc(C)c(Cl)c(=O)[nH]2)c(O)c(OC)c2occc12	> 200	110 µM	
CCOc1ccc(/C=N/[N+](C)(C)C)cc1OCC	> 200	> 200 µM	
CSC1=C(C#N)C(=O)N(c2ccc(C)cc2)C(=S)C1C#N (stereo not drawn)	> 200	174 µM	
O=S(=O)(SC1=NCCN1)c1cccc2ccccc12	> 81.3	37.2 µM	
COC1OC2=CCC3C(=O)N(c4ccccc4)C(=O)C3C2[C@H](OCc2ccccc2)C1OCc1ccccc1 (stereo partly drawn)			inactive
C#CC(O)/C=C/C(O)CCCC(O)CC#CC(O)C#CCCCCC(O)/C=C/CCCCCC(=O)CCCCCCCCCCCCCC(O)C(O)C#CC(=O)O (stereo not drawn)	> 50.1	28.8 µM	
CN(C)[C@@H]1C(=O)C(C(=O)NCNC2(C(=O)O)CCCC2)=C(O)[C@@]2(O)C(=O)C3=C(O)c4c(O)cccc4[C@@](C)(O)[C@H]3C[C@@H]12	> 214	117 µM	
O=C1OCN(c2ccccc2)C12CCN(Cc1ccccc1)CC2	> 200	28.8 µM	
COc1cc2oc(=O)cc(C)c2cc1[N+](=O)[O-]	> 53.7	21.9 µM	
O=C1C=CC(=C(c2ccc(O)cc2)c2c(Br)c(Br)c(Br)c(Br)c2S(=O)(=O)O)C=C1			inactive
Nc1ccc([N+](=O)[O-])cc1CN1C(=O)c2ccccc2C1=O	> 200	> 200 µM	
Cc1ccc(N2COc3ccc4ccccc4c3C2)cc1	> 200	26.3 µM	
COc1ccc(CCn2ccc(C)n2)c(OC)c1	> 200	> 200 µM	
CN(/N=C/c1ccc(C(=O)O)cc1)C1=NCCCCN1	> 200	> 200 µM	
S=c1sc2cscc2s1	> 52.5	30.9 µM	
CC(/C=N/NC1=NCCCN1)=N\NC1=NCCCN1	> 200	> 200 µM	
CC1CC(=O)Nc2ccccc2N1C(=O)C1CC1 (stereo not drawn)	> 200	> 200 µM	
O=C1C=CC(=Nc2ccc3c(c2)Cc2ccccc2-3)O1	> 200	32.4 µM	
CC1(C)C2C=C(CCN3CCOCC3)CC1C2 (stereo not drawn)	> 200	> 200 µM	
CCC(C)C(NC(=O)C(CCC(N)=O)NC(=O)CN)C(=O)NC(Cc1ccccc1)C(=O)NC(CO)C(=O)NC(CCCN=C(N)N)C(N)=O (stereo not drawn) (H-GQIFSR-NH2; configuration not given here)			inactive

SMILES	EC50 [µM]	IC50	outcome
O=C1NC(O)c2ccccc2O1 (stereo not drawn)	85.1	> 200 µM	
CC1NC(C)SC(C)S1 (stereo not drawn)	> 200	> 200 µM	
CC(C)(C)C(=O)/C=C/c1ccccc1F	> 49	> 49 µM	
CC1CCC2(CCN(CCCN(C)C)CC2)C1 (stereo not drawn)			inactive
CCOC(=O)c1ccc(CS(=O)(=O)c2ccc(OC)cc2)cc1	> 56.2	> 56.2 µM	
Cc1cc2c(C)n(Cc3ccc(Cl)cc3Cl)nc2c(C#N)c1C	> 20.9	> 20.9 µM	
COC(=O)[C@@]1(C(C)CC(=O)O)CCCCC1=O (stereo partly drawn)	> 1020	214 µM	
CC1=N/C(=C\c2ccc([N+](=O)[O-])cc2)C(=O)O1	> 155	> 155 µM	
Cc1cc(C)c(N)c(CO)c1	> 200	> 200 µM and 107 µM	
COc1cc(C(=O)n2c(=O)oc(=O)c3cc([N+](=O)[O-])ccc32)cc(OC)c1OC	> 200	> 200 µM	
CCCCCCSC[C@H](OC(C)=O)[C@@H](OC(C)=O)[C@@H](OC(C)=O)[C@@H](COC(C)=O)OC(C)=O	> 200	53.7 µM	
CC1CCC2(C(=O)O)CCC3(C)C(=CCC4C5(C)CCC(O)C(C)(C)C5CCC43C)C2C1C (stereo not drawn)	> 200	14.8 µM	
COC(=O)[C@H](C)NC(=O)[C@H](NS(=O)(=O)c1nc2ccccc2s1)c1ccccc1	> 200	37.2 µM	
O=C(/C=C/c1ccccc1)/C=C/c1ccccc1			inactive
ClC(=C(c1ccc(OC2CCCCO2)cc1)c1ccc(OC2CCCCO2)cc1)c1ccccc1 (stereo not drawn)	> 100	87.1 µM	
O=C1c2c(O)cc(O)cc2OC(c2ccc(O)cc2)C1C1C(=O)c2c(O)cc(O)cc2OC1c1ccc(O)cc1 (stereo not drawn)	> 200	46.8 µM	
COC(=O)C1C=CCON2CCc3c(n(C)c4ccccc34)C12 (stereo not drawn)	> 22.9	> 22.9 µM	
COc1cc(C2c3[nH]c4ccc(F)cc4c3C[C@H]3COC(=O)N23)cc(OC)c1O (stereo partly drawn)	> 200	0.575 µM	
N#Cc1c(-c2ccccc2)cn2c1[nH]c(=O)c1ccccc12	> 200	30.2 µM	
CC1(C)O[C@H]2OC(CO)C(N=[N+]=[N-])[C@H]2O1 (stereo partly drawn)	> 200	> 200 µM	
O=c1oc(-c2ccccc2Br)ns1	> 100	52.5 µM	
O=c1cccc(-c2cccc(=O)[nH]2)[nH]1			inactive

SMILES	EC50 [µM]	IC50	outcome
COCc1cn(C2CC(F)C(CO)O2)c(=O)nc1N (stereo not drawn)	> 457	> 457 µM	
O=[As](O)(O)c1cccc(F)c1	> 200	107 µM	
COc1ccc2c(c1)c1c(n2CCN2CCOCC2)-c2ccccc2CC1			inactive
O=c1[nH]nc(Cc2ccccc2)n1/N=C/c1ccc([N+](=O)[O-])cc1	> 200	> 200 µM	
CN(C)/N=N/c1nc2c(c(=O)n(C)c(=O)n2C)n1CC(O)CO (stereo not drawn)	> 200	> 200 µM	
Cn1c(=O)c2[nH]c(N=Nc3c(N)n[nH]c3N)nc2n(C)c1=O	> 200	> 200 µM	
O=C(O)CCNS(=O)(=O)c1ccc([N+](=O)[O-])cc1			inactive
O=C(NN1C(=O)C(Cl)C1c1c(O)ccc2ccccc12)c1ccccc1O (stereo not drawn)	> 67.6	> 67.6 µM	
COc1cc2c(cc1OC)NCC1COc3c(ccc(OC)c3OC)C1=N2 (stereo not drawn)	> 200	117 µM	
Clc1ccc(SCCSCCCCCCCCCCSCCSc2ccc(Cl)cc2)cc1	> 9.55	> 9.55 µM	
CCC(Oc1ccc(OC)c2ccccc(=O)c12)C(=O)O (stereo not drawn)			inactive
CCCCCC=C(c1cc(Cl)c(OC)c(-c2nc(C)no2)c1)c1cc(Cl)c(OC)c(-c2nc(C)no2)c1	> 200	10.2 µM	
COC(C(=O)CN(C)C)(c1ccccc1)c1ccccc1	> 200	141 µM	
COC(=O)c1cc(C(=CCCC(C)[C@H]2CCC3C4CC[C@@H]5CCCC[C@]5(C)C4CC[C@@]32C)c2cc(Cl)c(OC)c(C(=O)OC)c2)cc(Cl)c1OC (stereo partly drawn)	> 200	39.8 µM	
CC(Oc1ccc(OCC2CCCCC2)cc1)C(=O)NCCO (stereo not drawn)	> 295	41.7 µM	
CC(=O)OC1CCC2(C)C(CCC3C4CC=C(C(C)=O)C4(C)OC(=O)CC32)C1 (stereo not drawn)			inactive
COc1cc2c(c(OC)c1OC)-c1ccc(OC)c(=O)cc1C([N+](C)(C)C)CC2 (stereo not drawn)	> 200	11 µM	
CC(C)(C)C1CCC(CC(=O)O)(CC(=O)Nc2nccs2)CC1 (stereo not drawn)	> 200	89.1 µM	
O=[N+]([O-])C1(C2([N+](=O)[O-])CCCC2)CCCC1	44.7	110 µM	
O=C(CCCl)NNC1=NCCCCN1	> 200	> 200 µM	
C[N+](C)(C)CC(=O)N/N=C(/C=C/c1ccccc1)CC1OC(=O)c2ccccc21 (stereo not drawn)	> 589	> 589 µM	
COc1ccc(NC(=O)C2=C(SC)C(C#N)C(=O)N=C2N)cc1 (stereo not drawn)	> 200	44.7 µM	

SMILES	EC50 [µM]	IC50	outcome
COc1cc(OC)cc(C2(C#N)CCN(C)CC2)c1	> 191	> 191 µM	
c1cc2n[se]nc2cc1-c1ccc2n[se]nc2c1	155	> 200 µM	
N#C/C(=C/c1ccc[nH]1)P(=O)(O)O	> 1260	724 µM	
C=C[C@H]1C=Cc2ccccc2[C@]1(C=O)CCC1(C)OCCO1	> 832	676 µM	
CCCCCC#COC1CC(C)CC[C@@H]1C(C)C (stereo partly drawn)	> 200	110 µM	
Cc1cc(NC(=O)c2ccc(N=Nc3cc(S(=O)(=O)O)c4ccccc4c3O)cc2)ccc1N=Nc1ccc2cc(S(=O)(=O)O)cc(S(=O)(=O)O)c2c1			active
CCOC(=O)C1(C#N)C(c2ccccc2)CC(O)(c2ccc(OC)cc2)C(C(=O)c2ccc(OC)cc2)C1c1ccccc1 (stereo not drawn)	> 12.3	> 12.3 µM	
COc1ccn(CC(C)=O)c(=O)n1	> 200	> 200 µM	
Nc1nc2n(nc[n+]2CCP(=O)(O)O)c(=O)[nH]1			inactive
COC(=O)C(Cc1c[nH]c2ccccc12)NC(=O)C(Cc1c[nH]c2ccccc12)NC(=O)C(Cc1c[nH]c2ccccc12)NC(=O)C(Cc1c[nH]c2ccccc12)NC(=O)C(Cc1c[nH]c2ccccc12)NC(=O)C(Cc1c[nH]c2ccccc12)NC(=O)C(Cc1c[nH]c2ccccc12)NC(=O)C(Cc1c[nH]c2ccccc12)NC(=O)OC(C)(C)C (stereo not drawn) (Boc-WWWWWWWW-OMe; configuration not given here)	> 100	40.7 µM	
CN1CCN(C(=S)N(C(=O)c2ccco2)C2CCCCC2)CC1	> 741	631 µM	
CN1C(=S)N2CCCCCCCC2c2c1nc(CCl)[nH]c2=O (stereo not drawn)	> 200	6.92 µM	
N=C(OC1CCCCC1)N1CCCC1	> 200	> 200 µM	
Nn1c(NNC(=O)C(=O)Nc2cc(Cl)c(Cl)cc2Cl)n[nH]c1=S	> 123	> 123 µM	
Cc1ccc2c(c1)NC(=S)N=S2(C)=O (stereo not drawn)	> 158	93.3 µM	
CCC(C)C(NC(=O)CNC(=O)CN)C(=O)NCC(=O)NCC(=O)O (stereo not drawn) (HELM PEPTIDE1{G.G.[CCC(C)C(N[*:1])C(=O)[*:2]].G.G}$$$$V2.0)	> 69.2	> 69.2 µM	
c1cc(-c2cscc2-c2ccsc2)cs1	> 200	110 µM	
CC(C)(C)OC(=O)N(CCCCNC(=O)C(F)(F)F)CCCNC(=O)C(F)(F)F	> 200	> 200 µM	
CC(C)(C)OC(=O)NC(CCC(=O)OCc1ccccc1)C(=O)NCCCO (stereo not drawn)	> 200	> 200 µM	

From PubChem BioAssay AID179 (DTP/NCI, 2004)
